From ChEMBL document CHEMBL1201862, “PubChem BioAssay data set” (2004) come the findings set out here.

Experiment in all cases: growth of human tumour cells (NCI), 48 h
For test [1], the system named is A498.
In test [2] the test system is COLO 205.
Test [3] has as its system HT-29.
Test [4] has as its system Hs-578T.
Test [5] has as its system K562.
Test [6] deals with KM12.
Test [7] has as its system MDA-MB-231.
In test [8] the test system is MDA-N.
Test [9] has as its system NCI-H23.
Test [10] has as its system NCI-H460.
Test [11] has as its system NCI/ADR-RES.
Test [12] relates to OVCAR-5.
In test [13] the test system is OVCAR-8.
The subject of test [14] is RXF 393.
Test [15] has as its system SF-539.
Test [16] relates to SK-MEL-28.
Test [17] deals with SK-MEL-5.
The subject of test [18] is SR.
Test [19] concerns T47D.
The subject of test [20] is UO-31.

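Five compound concentrations were applied to cells in 96-well plates for 48 hours; endpoints were derived by simple linear interpolation of the resulting dose-response curve. Here, GI50 denotes the concentration required for 50% inhibition of growth.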 Calls of active or inactive are those of the source. Cut-off read from the data, not from the text of the source: active = GI50 up to about 1.1 µM and inactive = higher. Where a SMILES comes first, the peptide text is derived from it. The star is where a group is joined. Cbz = O=C(OCc1ccccc1)*; Boc = CC(C)(C)OC(=O)*; tBu = CC(C)(C)*

On to `C[C@@H](NC(=O)Cn1c(Cl)nc2ccccc21)c1ccccc1`, for which the GI50 in test [1] is > 100 µM (inactive); in test [2] it was > 100 µM (inactive); in test [3] it was > 100 µM (inactive); in [4], 51.6 µM (inactive); in test [5], > 100 µM (inactive); in test [6], > 100 µM (inactive). The GI50 was > 100 µM (inactive) in test [7]; > 100 µM (inactive) in test [8]; 46.2 µM (inactive) in test [9]; > 100 µM (inactive) in test [10]; 33 µM (inactive) in test [11]; > 100 µM (inactive) in [12]. The GI50 in [13] was > 100 µM (inactive); in test [14], > 100 µM (inactive); in test [15], > 100 µM (inactive); in [16], > 100 µM (inactive); in test [17] it was 17.5 µM (inactive); in test [18] it was > 100 µM (inactive). Besides, the GI50 in test [19] was 36.2 µM (inactive); in [20], > 100 µM (inactive).
`C=C(C)[C@@H]1CC[C@]2(C(=O)OC3OC(COC4OC(CO)C(OC5OC(C)C(O)C(O)C5O)C(O)C4O)C(O)C(O)C3O)CC[C@]3(C)[C@H](CC[C@@H]4[C@@]5(C)CC[C@H](O)[C@@](C)(CO)[C@@H]5CC[C@]43C)[C@@H]12` (stereo not given in full): the GI50 in test [1] is 2.48 µM (inactive); in test [2], 1.63 µM (inactive); in test [3], 3.05 µM (inactive); in [4], 3.64 µM (inactive); in test [5], 0.802 µM (active); in [6], 0.625 µM (active). The GI50 in test [7] is 3.56 µM (inactive); in test [8] it was 4.58 µM (inactive); in test [9], 1.04 µM (active); in test [10], 1.37 µM (inactive); in [11] it was 2.91 µM (inactive); in test [12] it was 6.81 µM (inactive). For the same molecule, the GI50 was 3.97 µM (inactive) in [13]; 5.06 µM (inactive) in test [14]; 2.58 µM (inactive) in test [15]; 5.79 µM (inactive) in test [16]; 2.84 µM (inactive) in test [17]; 0.755 µM (active) in [18]. In addition, the GI50 in test [19] is 3.4 µM (inactive); in test [20], 3.93 µM (inactive).
Take `O=C1Nc2ccc(Br)cc2/C1=N/c1ccc2c(c1)OCO2`: the GI50 is 30.6 µM (inactive) in test [1]; 16.9 µM (inactive) in test [2]; 17.4 µM (inactive) in test [3]; 30.5 µM (inactive) in [4]; 24.4 µM (inactive) in test [5]; 17.6 µM (inactive) in test [6]. The GI50 is 19 µM (inactive) in test [7]; 15.7 µM (inactive) in [8]; 37.2 µM (inactive) in [9]; 22.5 µM (inactive) in test [10]; 27.5 µM (inactive) in [11]; 22.8 µM (inactive) in test [12]. The GI50 in test [13] was 32.5 µM (inactive); in test [14] it was 20.3 µM (inactive); in test [15], 18.5 µM (inactive); in test [16], 39 µM (inactive); in [17], 16 µM (inactive); in test [18], 15.1 µM (inactive). For the same molecule, the figures for the GI50 in [19] and in test [20] were 35.9 µM (inactive) and 19.1 µM (inactive), respectively.
On to `CC1OC(OC2C(O[C@H]3CC[C@@]4(C)C(=CC[C@H]5[C@@H]6C[C@@H]7O[C@]8(CC[C@@H](C)CO8)[C@@H](C)[C@@H]7[C@@]6(C)CC[C@@H]54)C3)OC(CO)C(OC3OC(CO)C(O)C3O)C2O)C(O)C(O)C1O` (stereo not given in full), for which the GI50 in test [1] is 0.881 µM (active); in test [2] it was 0.6 µM (active); in test [3], 0.805 µM (active); in test [4] it was 0.805 µM (active); in [5] it was 1.23 µM (inactive); in [6], 0.912 µM (active). Also, the GI50 is 0.8 µM (active) in test [7]; 0.752 µM (active) in test [8]; 0.836 µM (active) in test [9]; 0.438 µM (active) in [10]; 0.91 µM (active) in test [11]; 0.8 µM (active) in [12]. Besides, the GI50 was 0.535 µM (active) in test [13]; 0.865 µM (active) in test [14]; 0.644 µM (active) in test [15]; 0.605 µM (active) in test [16]; 0.746 µM (active) in test [17]; 0.695 µM (active) in test [18]. Further, the GI50 in [19] is 1.12 µM (active); in [20] it was 0.798 µM (active).
As for `COC(=O)C(Cc1ccc2c(c1)CCCC2)Cc1cc2c(cc1C(O)OC)CCC2` (stereo not given), the GI50 in [1] was > 100 µM (inactive); in [2], 37.7 µM (inactive); in test [3] it was 27.7 µM (inactive); in test [4], 57.9 µM (inactive); in [5], 35.1 µM (inactive); in test [6], 44.7 µM (inactive). For the same molecule, the GI50 was > 100 µM (inactive) in test [7]; 56.8 µM (inactive) in test [8]; 73.5 µM (inactive) in test [9]; 35.8 µM (inactive) in [10]; 32.8 µM (inactive) in test [11]; 80.9 µM (inactive) in [12]. In addition, the GI50 in test [13] is > 100 µM (inactive); in test [14] it was 24.3 µM (inactive); in [15], 39.1 µM (inactive); in test [16], 55 µM (inactive); in test [17], 33.4 µM (inactive); in [18], 38.5 µM (inactive). Further, the values for the GI50 in test [19] and in test [20] were 29.3 µM (inactive) and 93.8 µM (inactive), respectively.
With `CCOC(=O)c1cc2cc([N+](=O)[O-])ccc2oc1=O`, the GI50 was > 100 µM (inactive) in [1]; > 100 µM (inactive) in test [2]; > 100 µM (inactive) in test [3]; > 100 µM (inactive) in test [4]; 41.2 µM (inactive) in test [5]; > 100 µM (inactive) in test [6]. The GI50 in test [7] is > 100 µM (inactive); in test [8], > 100 µM (inactive); in test [9] it was > 100 µM (inactive); in test [10] it was 69.5 µM (inactive); in test [11] it was > 100 µM (inactive); in test [12] it was > 100 µM (inactive). The GI50 in test [13], in test [14], in [15], in [16], in [17] and in [18] was > 100 µM (inactive) in each case. The GI50 is > 100 µM (inactive) in test [19] and 35.6 µM (inactive) in test [20].
Take `N#C[BH2-][n+]1ccc(C(=O)NNCC(F)(F)F)cc1`: the GI50 in [1], in test [2], in test [3], in test [4], in [5] and in test [6] was > 100 µM (inactive) each time. Moreover, the GI50 in test [7], in test [8], in test [9], in [10], in [11] and in test [12] was > 100 µM (inactive) each time. The GI50 in test [13], in test [14], in test [15], in test [16], in test [17] and in test [18] was > 100 µM (inactive) in each case. Also, the GI50 in test [19] and in test [20] was > 100 µM (inactive) in each case.
On to `CC(OC(C)(C)C)C(NC(=O)C(CCCCNC(=O)OC(C)(C)C)NC(=O)C(Cc1c[nH]c2ccccc12)NC(=O)C(Cc1ccccc1)NC(=O)OCc1ccccc1)C(=O)NC(Cc1ccccc1)C(=O)O` (stereo not given) (Cbz-FWK(Boc)T(tBu)F-OH; configuration not given here), for which the GI50 in test [1] was > 100 µM (inactive); in [2] it was 36.9 µM (inactive); in test [3], 33.5 µM (inactive); in test [4], 0.9 µM (active); in test [5], 28.8 µM (inactive); in test [6], 43.3 µM (inactive). Moreover, the GI50 in test [7] was 40.2 µM (inactive); in [8], 38.5 µM (inactive); in [9] it was 61.7 µM (inactive); in test [10] it was > 100 µM (inactive); in test [11] it was > 100 µM (inactive); in test [12], 33.1 µM (inactive). Moreover, the GI50 in test [13] was 95.1 µM (inactive); in [14] it was > 100 µM (inactive); in test [15], 31.8 µM (inactive); in test [16] it was 57.8 µM (inactive); in test [17], 1.66 µM (inactive); in [18], 44.4 µM (inactive). The GI50 in test [19] was 28.4 µM (inactive); in test [20] it was > 100 µM (inactive).
On to `C=C1CC(O)C2C(=C)C(=O)OC2C2C(C)C(=O)CC12` (stereo not given), for which the GI50 is 29.4 µM (inactive) in [1]; 7.33 µM (inactive) in test [2]; 18.7 µM (inactive) in [3]; 19.1 µM (inactive) in test [4]; 5.98 µM (inactive) in test [5]; 24.7 µM (inactive) in test [6]. Further, the GI50 in test [7] was 20.4 µM (inactive); in [8], 6.87 µM (inactive); in test [9], 16 µM (inactive); in [10], 24.5 µM (inactive); in test [11], 18.4 µM (inactive); in test [12], 16.1 µM (inactive). For the same molecule, the GI50 in test [13] was 21.3 µM (inactive); in test [14], 4.73 µM (inactive); in test [15], 19.7 µM (inactive); in test [16] it was 14.3 µM (inactive); in [17], 20.7 µM (inactive); in [18], 9.14 µM (inactive). Also, the GI50 in test [19] was 16.9 µM (inactive); in test [20], 14.7 µM (inactive).
